What was measured:
[1] = target: T1, human recombinant kinase full-length wildtype AKT1 (Homo sapiens, UniProt P31749); test: AKT1 kinase assay (wildtype, TR-FRET, Lance); format: biochemical; conditions: 0.6 nM wildtype AKT1, 50 nM Ulight-CREBtide, either 50 μM ATP or 2 mM ATP, 60 min at RT
T1 construct: Purified human recombinant kinase full-length wildtype AKT1 was expressed in insect cells; made in house; host or cells: insect cells
In short: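 Insect-cell-expressed full-length human AKT1, PDPK1-activated (0.6 nM), preincubated with compound 15 min at RT, then reacted 60 min at RT with 50 nM ULight-CREBtide and 50 μM or 2 mM ATP (pH 7.5, 1% DMSO). Phospho-CREBtide read by Eu-anti-phospho-Ser133 TR-FRET (665/620 ratio); IC50 from 10-point 4-parameter fit.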

[2] = target: T2, human recombinant kinase full-length AKT1 E17K (Homo sapiens, UniProt P31749, E17K); test: AKT1 E17K kinase assay (TR-FRET, Lance); format: biochemical; conditions: 0.6 nM AKT1 E17K, 50 nM Ulight-CREBtide, either 50 μM ATP or 2 mM ATP, 60 min at RT
T2 construct: Purified human recombinant kinase full-length AKT1 E17K was expressed in insect cells; made in house; host or cells: insect cells
T2 sequence (P31749 whole entry E17K): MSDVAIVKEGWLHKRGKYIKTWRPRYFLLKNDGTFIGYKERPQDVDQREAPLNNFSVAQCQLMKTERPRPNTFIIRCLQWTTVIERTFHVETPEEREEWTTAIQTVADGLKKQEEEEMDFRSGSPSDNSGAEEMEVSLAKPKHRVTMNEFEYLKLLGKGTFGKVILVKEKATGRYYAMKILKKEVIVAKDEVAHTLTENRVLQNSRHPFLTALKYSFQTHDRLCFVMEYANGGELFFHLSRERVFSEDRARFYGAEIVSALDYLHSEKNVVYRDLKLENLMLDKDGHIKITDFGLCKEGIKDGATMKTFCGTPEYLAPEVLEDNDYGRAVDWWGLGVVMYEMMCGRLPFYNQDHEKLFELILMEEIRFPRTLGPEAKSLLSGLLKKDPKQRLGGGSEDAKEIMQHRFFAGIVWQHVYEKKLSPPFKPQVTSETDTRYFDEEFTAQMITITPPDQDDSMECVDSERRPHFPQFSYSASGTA
In short: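 Full-length AKT1 E17K from insect cells, PDPK1-activated, at 0.6 nM with 50 nM Ulight-CREBtide and 50 μM or 2 mM ATP, pH 7.5, 1% DMSO. Enzyme and compound preincubated 15 min, reaction run 60 min at RT; Eu-anti-phospho-CREB (Ser133) TR-FRET 665/620 ratio, 10-point curve, IC50 by 4-parameter fit.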

T1 sequence (P31749 whole entry): as the sequence (P31749 whole entry E17K) above, with K17E counted along it

Structure (SMILES)	IC50 [1] [nM]	IC50 [2] [nM]
Nc1ncccc1-c1nc2ccc(-c3ccccc3)nc2n1-c1ccc(NC(=O)C2CC3(CC(C(=O)O)C3)C2)c(F)c1 (stereo not drawn) [Compound I-47, 6-((4-(2-(2-aminopyridin-3-yl)-5-phenyl-3H-imidazo[4,5-b]pyridin-3-yl)-2-fluorophenyl)carbamoyl)spiro[3.3]heptane-2-carboxylic acid]	< 20000	< 500
Nc1ncccc1-c1nc2ccc(-c3ccccc3)nc2n1-c1ccc(NC(=O)C2CC3C(C2)C3C(=O)O)nc1 (stereo not drawn) [Compound I-48, 3-((5-(2-(2-aminopyridin-3-yl)-5-phenyl-3H-imidazo[4,5-b]pyridin-3-yl)pyridin-2-yl)carbamoyl)bicyclo[3.1.0]hexane-6-carboxylic acid]	< 20000	< 500
Nc1ncccc1-c1nc2ccc(-c3ccccc3)nc2n1-c1ccc(NC(=O)N2CCC(C(=O)O)C2)cc1 (stereo not drawn) [Compound I-52, 1-[[4-[2-(2-amino-3-pyridyl)-5-phenyl-imidazo[4,5-b]pyridin-3-yl]phenyl]carbamoyl]pyrrolidine-3-carboxylic acid]	< 20000	< 500
Nc1ncccc1-c1nc2ccc(-c3ccccc3)nc2n1-c1ccc(NC(=O)N2CCC(C(=O)O)CC2)cc1 [Compound I-53, 1-[[4-[2-(2-amino-3-pyridyl)-5-phenyl-imidazo[4,5-b]pyridin-3-yl]phenyl]carbamoyl]piperidine-4-carboxylic acid]	< 20000	< 500
Nc1ncccc1-c1nc2ccc(-c3ccccc3)nc2n1-c1ccc(C2CN(C[C@H]3CC[C@H](C(=O)O)CC3)C2)c(F)c1 [Compound I-62, (1r,4r)-4-((3-(4-(2-(2-aminopyridin-3-yl)-5-phenyl-3H-imidazo[4,5-b]pyridin-3-yl)-2-fluorophenyl)azetidin-1-yl)methyl)cyclohexane-1-carboxylic acid]	< 20000	500 to 2000
Nc1ncccc1-c1nc2ccc(-c3ccccc3)nc2n1-c1ccc(C2CN(C[C@H]3CC[C@@H](C(=O)O)CC3)C2)c(F)c1 [Compound I-63, (1s,4s)-4-((3-(4-(2-(2-aminopyridin-3-yl)-5-phenyl-3H-imidazo[4,5-b]pyridin-3-yl)-2-fluorophenyl)azetidin-1-yl)methyl)cyclohexane-1-carboxylic acid]	< 20000	500 to 2000
Nc1ncccc1-c1nc2cc(-c3ccc(F)cc3)cnc2n1-c1ccc(C2CN(C[C@H]3CC[C@H](C(=O)O)CC3)C2)cc1 [Compound I-67, (1r,4r)-4-((3-(4-(2-(2-aminopyridin-3-yl)-6-(4-fluorophenyl)-3H-imidazo[4,5-b]pyridin-3-yl)phenyl)azetidin-1-yl)methyl)cyclohexane-1-carboxylic acid]	< 20000	≥ 2000

Further lines, results first:

IC50 [1] [nM]	IC50 [2] [nM]	Structure (SMILES)
< 20000	< 500	Nc1ncccc1-c1nc2ccc(-c3ccccc3)nc2n1-c1ccc(C2CN(C[C@H]3CC[C@H](C(=O)O)CC3)C2)cc1 [Compound I-57, (1r,4r)-4-((3-(4-(2-(2-aminopyridin-3-yl)-5-phenyl-3H-imidazo[4,5-b]pyridin-3-yl)phenyl)azetidin-1-yl)methyl)cyclohexane-1-carboxylic acid]
< 20000	< 500	Nc1ncccc1-c1nc2ccc(-c3ccccc3)nc2n1-c1ccc(C2CN(C[C@@H]3CC[C@H](C(=O)O)C3)C2)cc1 [Compound I-58, (1S,3R)-3-((3-(4-(2-(2-aminopyridin-3-yl)-5-phenyl-3H-imidazo[4,5-b]pyridin-3-yl)phenyl)azetidin-1-yl)methyl)cyclopentane-1-carboxylic acid]
< 20000	< 500	C[C@H]([C@H]1CC[C@H](C(=O)O)CC1)N1CC(c2ccc(-n3c(-c4cccnc4N)nc4ccc(-c5ccccc5)nc43)cc2)C1 [Compound I-59, (1R,4r)-4-((R)-1-(3-(4-(2-(2-aminopyridin-3-yl)-5-phenyl-3H-imidazo[4,5-b]pyridin-3-yl)phenyl)azetidin-1-yl)ethyl)cyclohexane-1-carboxylic acid]
< 20000	500 to 2000	C[C@@H]([C@H]1CC[C@H](C(=O)O)CC1)N1CC(c2ccc(-n3c(-c4cccnc4N)nc4ccc(-c5ccccc5)nc43)cc2)C1 [Compound I-60, (1S,4r)-4-((S)-1-(3-(4-(2-(2-aminopyridin-3-yl)-5-phenyl-3H-imidazo[4,5-b]pyridin-3-yl)phenyl)azetidin-1-yl)ethyl)cyclohexane-1-carboxylic acid]
< 20000	< 500	Nc1ncccc1-c1nc2ccc(-c3ccccc3)nc2n1-c1ccc(C2CN(C[C@@H]3CC[C@@H](C(=O)O)C3)C2)cc1 [Compound I-61, (1R,3R)-3-((3-(4-(2-(2-aminopyridin-3-yl)-5-phenyl-3H-imidazo[4,5-b]pyridin-3-yl)phenyl)azetidin-1-yl)methyl)cyclopentane-1-carboxylic acid]
< 20000	≥ 2000	Nc1ncccc1-c1nc2ccc(-c3ccccc3)nc2n1-c1ccc(C2CN(CC3CCC(C(=O)O)CC3)C2)nc1 (stereo not drawn) [Compound I-64, 4-((3-(5-(2-(2-aminopyridin-3-yl)-5-phenyl-3H-imidazo[4,5-b]pyridin-3-yl)pyridin-2-yl)azetidin-1-yl)methyl)cyclohexane-1-carboxylic acid]
< 20000	≥ 2000	Nc1ncccc1-c1nc2cc(-c3ccccc3)cnc2n1-c1ccc(C2CN(C[C@H]3CC[C@H](C(=O)O)CC3)C2)cc1 [Compound I-65, (1r,4r)-4-((3-(4-(2-(2-aminopyridin-3-yl)-6-phenyl-3H-imidazo[4,5-b]pyridin-3-yl)phenyl)azetidin-1-yl)methyl)cyclohexane-1-carboxylic acid]
< 20000	500 to 2000	Nc1ncccc1-c1nc2ccc(-c3ccc(F)cc3)nc2n1-c1ccc(C2CN(C[C@H]3CC[C@H](C(=O)O)CC3)C2)cc1 [Compound I-66, (1r,4r)-4-((3-(4-(2-(2-aminopyridin-3-yl)-5-(4-fluorophenyl)-3H-imidazo[4,5-b]pyridin-3-yl)phenyl)azetidin-1-yl)methyl)cyclohexane-1-carboxylic acid]
< 20000	≥ 2000	Nc1ncccc1-c1nc2ccc(-c3ccccn3)cc2n1-c1ccc(C2CN(C[C@H]3CC[C@H](C(=O)O)CC3)C2)cc1 [Compound I-68, (1r,4r)-4-((3-(4-(2-(2-aminopyridin-3-yl)-6-(pyridin-2-yl)-1H-benzo[d]imidazol-1-yl)phenyl)azetidin-1-yl)methyl)cyclohexane-1-carboxylic acid]
< 20000	< 500	CC1(C)C[C@@H](CN2CC(c3ccc(-n4c(-c5cccnc5N)nc5ccc(-c6ccccc6)nc54)cc3)C2)CC[C@H]1C(=O)O [Compound I-69, (1R,4S)-4-((3-(4-(2-(2-aminopyridin-3-yl)-5-phenyl-3H-imidazo[4,5-b]pyridin-3-yl)phenyl)azetidin-1-yl)methyl)-2,2-dimethylcyclohexane-1-carboxylic acid]
< 20000	< 500	CC1(C)C[C@H](CN2CC(c3ccc(-n4c(-c5cccnc5N)nc5ccc(-c6ccccc6)nc54)cc3)C2)CC[C@@H]1C(=O)O [Compound I-70, (1S,4R)-4-((3-(4-(2-(2-aminopyridin-3-yl)-5-phenyl-3H-imidazo[4,5-b]pyridin-3-yl)phenyl)azetidin-1-yl)methyl)-2,2-dimethylcyclohexane-1-carboxylic acid]

— US20260200920A1, “SUBSTITUTED AMINOPYRIDINE COMPOUNDS FOR USE AS AKT1 INHIBITORS” (Atavistik Bio, Inc., priority 2023, published 2026)
